Measured values as given in PubChem BioAssay (NCI).
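Assay format: 96-well plates, 48-hour exposure. TGI marks complete inhibition of growth.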

Tests used:
Assay in all cases: DTP human tumour cell line panel, 48 h
[1] = test system: SK-MEL-5 melanoma
[2] = test system: K-562 leukemia
[3] = test system: SR leukemia
[4] = test system: DU-145 prostate
[5] = test system: MOLT-4 leukemia
[6] = test system: SF-268 CNS
[7] = test system: SK-MEL-28 melanoma
[8] = test system: CAKI-1 renal
[9] = test system: M14 melanoma
[10] = test system: T-47D breast
[11] = test system: PC-3 prostate
[12] = test system: A498 renal
[13] = test system: SN12C renal
[14] = test system: OVCAR-8 ovarian
[15] = test system: UO-31 renal
[16] = test system: UACC-257 melanoma
[17] = test system: SNB-75 CNS
[18] = test system: HOP-92 NSCLC
[19] = test system: RPMI-8226 leukemia
[20] = test system: 786-0 renal
[21] = test system: NCI/ADR-RES ovarian
[22] = test system: SF-295 CNS
[23] = test system: OVCAR-3 ovarian
[24] = test system: MDA-MB-435
[25] = test system: CCRF-CEM leukemia
[26] = test system: SK-OV-3 ovarian
[27] = test system: IGROV1 ovarian
[28] = test system: MCF7 breast
[29] = test system: TK-10 renal
[30] = test system: KM12 colon
[31] = test system: HCT-116 colon
[32] = test system: MALME-3M melanoma
[33] = test system: BT-549 breast
[34] = test system: LOX IMVI melanoma
[35] = test system: HOP-62 NSCLC
[36] = test system: COLO 205 colon
[37] = test system: NCI-H226 lung
[38] = test system: HS 578T breast
[39] = test system: OVCAR-4 ovarian
[40] = test system: SW-620 colon
[41] = test system: HL-60(TB) leukemia
[42] = test system: MDA-MB-231 breast
[43] = test system: HT29 colon
[44] = test system: ACHN renal
[45] = test system: UACC-62 melanoma
[46] = test system: NCI-H23 lung
[47] = test system: HCT-15 colon
[48] = test system: A549 NSCLC
[49] = test system: U251 CNS
[50] = test system: SK-MEL-2 melanoma
[51] = test system: NCI-H460 lung
[52] = test system: NCI-H522 lung
[53] = test system: MDA-N
[54] = test system: OVCAR-5 ovarian
[55] = test system: RXF 393 renal
[56] = test system: EKVX NSCLC
[57] = test system: SF-539 CNS

Measured: TGI

Nc1ccc2nc3n(c(=O)c2c1)CCCCC3
> 100 µM: all assays above
